Results on one substance are retold here after patent EP1466611A1, “Use of HCG derived peptides in the treatment of iatrogenic diseases” (Biotempt B.V., priority 2003, dated 2004).

In this test the test system is NF-kB. Description: NF-kB translocation by EMSA on nuclear extracts of RAW 264.7 mouse macrophages, basal and LPS induced (second experiment). Type of test: cell-based. To be noted: RAW264.7 cells, LPS in combination with peptide, 30 minutes of incubation, peptide 1 microgr/ml or 1 mg/ml. Here is the method: RAW 264.7 mouse macrophages were cultured in DMEM, containing 10% or 2% FBS, penicillin, streptomycin and glutamine, at 37 °C, 5% CO2. […] After 30 minutes of incubation plates were centrifuged and cells were collected for nuclear extracts. Nuclear extracts and EMSA were prepared according to Schreiber et al. Cells were collected in a tube and centrifuged for 5 minutes at 2000 rpm (rounds per minute) at 4°C (Universal 30 RF, Hettich Zentrifuges). The pellet was washed with ice-cold Tris buffered saline (TBS pH 7.4) and resuspended in 400 μl of a hypotonic buffer A (10 mM HEPES pH 7.9, 10 mM KCl, 0.1 mM EDTA, 0.1 mM EGTA, 1 mM DTT, 0.5 mM PMSF and protease inhibitor cocktail (Complete^TM Mini, Roche) and left on ice for 15 minutes. Twenty five micro litre 10% NP-40 was added and the sample was centrifuged (2 minutes, 4000 rpm, 4°C). The supernatant (cytoplasmic fraction) was collected and stored at -70°C. […] The samples were left to shake at 4°C for at least 60 minutes. Finally the samples were centrifuged and the supernatant (nucleic fraction) was stored at -70°C. Bradford reagent (Sigma) was used to determine the final protein concentration in the extracts. […] Hundred pico mol sense and antisense oligo were annealed and labelled with […] using T4 polynucleotide kinase according to the manufacture's instructions (Promega, Madison, WI). […]
On the technique in general: Mobility shift assays separate free from complexed probe on a gel.

Ends that are not written are not given here.

“circular LQGVLPALPQVVC (also: circular / cyclised, mode of ring closure not given here) [NFkappaB down-regulating peptide]”: the “LPS induced translocation of NF-kB” value was “inhibition”.
